Columns and labels:
[1] = target: His6-TEV-PDGFRβ (557-1016) (Homo sapiens (Human), UniProt P09619); assay: PDGFRβ HTRF Assay; type: biochemical; settings: read-out: PDGFR HTRF IC50
Method in brief: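 HTRF KinEASE-TK readout (665/620 nm ratio) of TK-biotin substrate phosphorylation by His-tagged PDGFRβ kinase domain. Enzyme and inhibitor preincubated 30 min, then ATP/substrate added for 3 h at room temperature before 60 min EDTA quench/detection.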

VEGFR2, unphosphorylated = VEGFR2, unphosphorylated (Homo sapiens (Human), UniProt P35968); assay: VEGFR ADP GLO Assay; type: biochemical
Sequence of VEGFR2, unphosphorylated (P35968 20-1356): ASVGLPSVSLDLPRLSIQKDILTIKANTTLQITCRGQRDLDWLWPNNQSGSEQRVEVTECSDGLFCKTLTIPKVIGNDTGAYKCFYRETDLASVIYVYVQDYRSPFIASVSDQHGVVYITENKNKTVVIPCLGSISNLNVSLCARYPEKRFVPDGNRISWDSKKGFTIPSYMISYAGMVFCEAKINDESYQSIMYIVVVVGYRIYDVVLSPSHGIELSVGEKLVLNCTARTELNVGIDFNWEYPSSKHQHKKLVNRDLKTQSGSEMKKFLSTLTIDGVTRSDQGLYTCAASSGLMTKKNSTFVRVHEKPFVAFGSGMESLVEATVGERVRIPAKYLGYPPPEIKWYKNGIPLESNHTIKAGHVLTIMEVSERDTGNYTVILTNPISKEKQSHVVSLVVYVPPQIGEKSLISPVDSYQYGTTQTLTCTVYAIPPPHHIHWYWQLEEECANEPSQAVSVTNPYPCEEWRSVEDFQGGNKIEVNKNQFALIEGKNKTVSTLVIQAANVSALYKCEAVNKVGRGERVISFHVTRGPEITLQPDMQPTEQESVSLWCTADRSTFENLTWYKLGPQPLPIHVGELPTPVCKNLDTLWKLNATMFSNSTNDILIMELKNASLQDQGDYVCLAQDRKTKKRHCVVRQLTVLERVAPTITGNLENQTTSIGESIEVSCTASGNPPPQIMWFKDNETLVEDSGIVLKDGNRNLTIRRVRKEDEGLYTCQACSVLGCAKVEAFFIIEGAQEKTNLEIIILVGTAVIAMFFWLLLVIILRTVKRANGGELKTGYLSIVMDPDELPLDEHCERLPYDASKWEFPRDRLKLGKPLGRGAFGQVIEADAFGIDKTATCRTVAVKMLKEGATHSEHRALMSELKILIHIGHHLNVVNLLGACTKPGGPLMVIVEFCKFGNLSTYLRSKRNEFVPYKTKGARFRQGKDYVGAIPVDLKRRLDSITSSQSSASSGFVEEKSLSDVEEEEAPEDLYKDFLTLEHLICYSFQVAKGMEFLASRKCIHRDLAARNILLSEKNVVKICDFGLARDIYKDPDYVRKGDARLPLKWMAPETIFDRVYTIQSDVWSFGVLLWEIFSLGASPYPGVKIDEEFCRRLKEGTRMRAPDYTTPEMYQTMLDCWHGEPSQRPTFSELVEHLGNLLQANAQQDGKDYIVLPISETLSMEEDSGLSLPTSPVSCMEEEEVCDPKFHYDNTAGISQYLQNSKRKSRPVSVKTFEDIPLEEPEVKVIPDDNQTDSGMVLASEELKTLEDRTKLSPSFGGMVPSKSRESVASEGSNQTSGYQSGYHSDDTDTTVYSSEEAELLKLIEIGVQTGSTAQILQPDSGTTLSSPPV

Sequence of His6-TEV-PDGFRβ (557-1016) (P09619 557-1016): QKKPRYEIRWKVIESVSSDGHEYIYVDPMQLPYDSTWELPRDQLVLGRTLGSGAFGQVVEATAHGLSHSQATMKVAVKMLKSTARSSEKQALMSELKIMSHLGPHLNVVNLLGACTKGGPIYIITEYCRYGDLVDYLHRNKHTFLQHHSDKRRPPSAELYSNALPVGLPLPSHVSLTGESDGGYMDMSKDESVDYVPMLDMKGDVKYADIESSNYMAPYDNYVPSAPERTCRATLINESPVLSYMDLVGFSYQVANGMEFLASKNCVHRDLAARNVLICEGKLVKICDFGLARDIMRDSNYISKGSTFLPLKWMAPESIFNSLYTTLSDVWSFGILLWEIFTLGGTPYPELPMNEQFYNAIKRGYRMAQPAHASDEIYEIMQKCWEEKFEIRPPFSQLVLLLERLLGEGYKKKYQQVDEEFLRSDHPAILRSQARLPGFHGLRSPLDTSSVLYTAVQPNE

Row | Structure (SMILES) | IC50 [1] [nM] | IC50 (VEGFR2, unphosphorylated) [nM]
1 | Cc1ncc(NC(=O)CN2Cc3cccnc3C2)cc1NC(=O)c1cnn2cc(-c3cnn(C)c3)sc12 [Example 48, N-(5-(2-(5H-pyrrolo[3,4-b]pyridin-6 (7H)-yl)acetamido)-2-methylpyridin-3-yl)-2-(1-methyl-1H-pyrazol-4-yl)pyrazolo[5,1-b]thiazole-7-carboxamide] | 1.4 | > 7500
2 | Cc1ncc(NC(=O)CN2CCC[C@@H]2C)cc1NC(=O)c1cnn2cc(-c3cnn(CCO)c3)sc12 [Example 84, (S)-2-(1-(2-hydroxyethyl)-1H-pyrazol-4-yl)-N-(2-methyl-5-(2-(2-methylpyrrolidin-1-yl)acetamido)pyridin-3-yl)pyrazolo[5,1-b]thiazole-7-carboxamide] | 0.9 | > 7500
3 | CC[C@@H]1COCCN1CC(=O)Nc1cnc(C)c(NC(=O)c2cnn3cc(-c4cnn(C)c4)sc23)c1 [Example 69, (R)—N-(5-(2-(3-ethylmorpholino)acetamido)-2-methylpyridin-3-yl)-2-(1-methyl-1H-pyrazol-4-yl)pyrazolo[5,1-b]thiazole-7-carboxamide] | 0.5 | > 7500
4 | Cc1ncc(NC(=O)CN2CCc3cnccc3C2)cc1NC(=O)c1cnn2cc(-c3cnn(C)c3)sc12 [Example 62, N-(5-(2-(3,4-dihydro-2,6-naphthyridin-2 (1H)-yl)acetamido)-2-methylpyridin-3-yl)-2-(1-methyl-1H-pyrazol-4-yl)pyrazolo[5,1-b]thiazole-7-carboxamide] | 1.4 | > 7500
5 | Cc1ncc(NC(=O)CN2C[C@@H](C)O[C@@H](C)C2)cc1NC(=O)c1cnn2cc(-c3cnn(C)c3)sc12 [Example 53, N-(5-(2-((2R,6S)-2,6-dimethylmorpholino)acetamido)-2-methylpyridin-3-yl)-2-(1-methyl-1H-pyrazol-4-yl)pyrazolo[5,1-b]thiazole-7-carboxamide] | 0.3 | > 7500
6 | COC1CCN(CC(=O)Nc2cnc(C)c(NC(=O)c3cnn4cc(-c5cnn(C)c5)sc34)c2)CC1 [Example 83, N-(5-(2-(4-methoxypiperidin-1-yl)acetamido)-2-methylpyridin-3-yl)-2-(1-methyl-1H-pyrazol-4-yl)pyrazolo[5,1-b]thiazole-7-carboxamide] | 2.3 | > 7500
7 | Cc1ncc(NC(=O)CN2Cc3ncsc3C2)cc1NC(=O)c1cnn2cc(-c3cnn(C)c3)sc12 [Example 76, N-(5-(2-(4H-pyrrolo[3,4-d]thiazol-5 (6H)-yl)acetamido)-2-methylpyridin-3-yl)-2-(1-methyl-1H-pyrazol-4-yl)pyrazolo[5,1-b]thiazole-7-carboxamide] | 0.9 | > 7500
8 | Cc1ncc(NC(=O)CN2[C@H](C)COC[C@@H]2C)cc1NC(=O)c1cnn2cc(-c3cnn(C)c3)sc12 [Example 71, N-(5-(2-((3S,5R)-3,5-dimethylmorpholino)acetamido)-2-methylpyridin-3-yl)-2-(1-methyl-1H-pyrazol-4-yl)pyrazolo[5,1-b]thiazole-7-carboxamide] | 2.9 | > 7500
9 | Cc1ncc(NC(=O)CN2CC3CC(C2)O3)cc1NC(=O)c1cnn2cc(-c3cnn(C)c3)sc12 [Example 45, N-(5-(2-(6-oxa-3-azabicyclo[3.1.1]heptan-3-yl)acetamido)-2-methylpyridin-3-yl)-2-(1-methyl-1H-pyrazol-4-yl)pyrazolo[5,1-b]thiazole-7-carboxamide] | 1 | > 7500
10 | Cc1ncc(NC(=O)CNC2CCC2)cc1NC(=O)c1cnn2cc(-c3cnn4c3OCCC4)sc12 [Example 494, N-(5-(2-(cyclobutylamino)acetamido)-2-methylpyridin-3-yl)-2-(6,7-dihydro-5H-pyrazolo[5,1-b][1,3]oxazin-3-yl)pyrazolo[5,1-b]thiazole-7-carboxamide] | 0.4 | > 7500
11 | Cc1ncc(NC(=O)CN2CCS(=O)(=O)CC2)cc1NC(=O)c1cnn2cc(-c3cnn(C)c3)sc12 [Example 59, N-(5-(2-(1,1-dioxidothiomorpholino)acetamido)-2-methylpyridin-3-yl)-2-(1-methyl-1H-pyrazol-4-yl)pyrazolo[5,1-b]thiazole-7-carboxamide] | 2.1 | > 7500
12 | Cc1ncc(NC(=O)CN2CCc3scnc3C2)cc1NC(=O)c1cnn2cc(-c3cnn(C)c3)sc12 [Example 61, N-(5-(2-(6,7-dihydrothiazolo[4,5-c]pyridin-5 (4H)-yl)acetamido)-2-methylpyridin-3-yl)-2-(1-methyl-1H-pyrazol-4-yl)pyrazolo[5,1-b]thiazole-7-carboxamide] | 0.8 | > 7500
13 | COCCn1cc(-c2cn3ncc(C(=O)Nc4cc(NC(=O)CCN5CCC6(CC6)C5)cnc4C)c3s2)cn1 [Example 91, N-(5-(3-(5-azaspiro[2.4]heptan-5-yl)propanamido)-2-methylpyridin-3-yl)-2-(1-(2-methoxyethyl)-1H-pyrazol-4-yl)pyrazolo[5,1-b]thiazole-7-carboxamide] | 0.5 | > 7500
14 | CC[C@@H]1CN(CC(=O)Nc2cnc(C)c(NC(=O)c3cnn4cc(-c5cnn(C)c5)sc34)c2)CCO1 [Example 65, (R)—N-(5-(2-(2-ethylmorpholino)acetamido)-2-methylpyridin-3-yl)-2-(1-methyl-1H-pyrazol-4-yl)pyrazolo[5,1-b]thiazole-7-carboxamide] | 0.7 | > 7500
15 | Cc1ncc(NC(=O)CCN2CCCC2(C)C)cc1NC(=O)c1cnn2cc(-c3cnn(C)c3)sc12 [Example 42, N-(5-(3-(2,2-dimethylpyrrolidin-1-yl)propanamido)-2-methyl-pyridin-3-yl)-2-(1-methyl-1H-pyrazol-4-yl)pyrazolo[5,1-b]thiazole-7-carboxamide] | 0.28 | > 7500
16 | CC[C@H]1CN(CC(=O)Nc2cnc(C)c(NC(=O)c3cnn4cc(-c5cnn(C)c5)sc34)c2)CCO1 [Example 66, (S)—N-(5-(2-(2-ethylmorpholino)acetamido)-2-methylpyridin-3-yl)-2-(1-methyl-1H-pyrazol-4-yl)pyrazolo[5,1-b]thiazole-7-carboxamide] | 0.3 | > 7500
17 | Cc1ncc(C(=O)NCCN2CCCC23CCC3)cc1NC(=O)c1cnn2cc(-c3cnn(C)c3)sc12 [Example 3, N-(5-((2-(5-azaspiro[3.4]octan-5-yl)ethyl)carbamoyl)-2-methylpyridin-3-yl)-2-(1-methyl-1H-pyrazol-4-yl)pyrazolo[5,1-b]thiazole-7-carboxamide] | 0.6 | 6980
18 | Cc1ncc(NC(=O)CN2CCc3ncsc3C2)cc1NC(=O)c1cnn2cc(-c3cnn(C)c3)sc12 [Example 58, N-(5-(2-(6,7-dihydrothiazolo[5,4-c]pyridin-5 (4H)-yl)acetamido)-2-methylpyridin-3-yl)-2-(1-methyl-1H-pyrazol-4-yl)pyrazolo[5,1-b]thiazole-7-carboxamide] | 1 | > 7500
19 | COCCn1cc(-c2cn3ncc(C(=O)Nc4cc(NC(=O)C(C)(C)CN5CCCC5(C)C)cnc4C)c3s2)cn1 [Example 488, N-(5-(3-(2,2-dimethylpyrrolidin-1-yl)-2,2-dimethyl-propanamido)-2-methylpyridin-3-yl)-2-(1-(2-methoxyethyl)-1H-pyrazol-4-yl)pyrazolo[5,1-b]thiazole-7-carboxamide] | 92.3 | > 7500

— patent publication US20240109917A1 (ACTELION PHARMACEUTICALS LTD, priority 2020, published 2024)
